Experiments:
Keratinocytes [1] = test: Effect on cell differentiation and cell number, gallium maltol added 24 hours after seeding, Example 4; type: cell-based, human; conditions: 7 days, high calcium
Procedure: (§1) Adult human keratinocytes from pooled donor skin were obtained from commercial sources (Cascade Biologics, Portland, Oreg., U.S.A.) and placed in 150 cm^2 bottom area culture flasks using culture medium 154 supplemented with HKGS (about 1%). At 80% confluency, cells were harvested with trypsin and cryopreserved until required.
(§2) Culture flasks (75 cm^2 bottom area) were seeded with keratinocytes at about 2,500 cells per cm^2 as before. After 24 hours, the medium in three (3) flasks were changed to media (154) with the calcium content increased from the normal 0.2 mM to 1.0 mM ("high calcium") plus gallium maltol (GaM) at the following concentrations: 1×10^-5 M, 5×10^-5 M, and 1×10^-4 M. The culture was continued for 7 days when cells were about 75% confluent in the controls (no GaM). Media supplemented as above were changed every 2 days. Finally, media were aspirated and cells rinsed with PBS before exposure to trypsin (0.025%)/EDTA (0.01%). When dislodged, they were collected in centrifuge tubes and the flasks rinsed with PBS:trypsin neutralizing solution (Clonetics, San Diego, Calif., U.S.A.; 1:1 v/v) and added to the cell suspension. The total volume of suspensions was approximately 8 to 10 mL. Aliquots of these suspensions were counted on the hemocytometer in terms of:
(§3) (1) small, light or dark keratinocytes, referred to as "proliferating";
(§4) (2) larger, squamous keratinocytes, with intracellular structural elements; and
(§5) (3) clear squamous cells without structural elements.
After counting, each suspension was centrifuged, the supernatant discarded, and the cell pellet resuspended in 0.5 to 1.0 mL of 1% SDS:2.5 mM DTT. After 15 minutes at 37° C., aliquots of these suspensions were counted for insoluble cornified envelops. The volumes were noted.

Keratinocytes [2] = test: Effect on cell differentiation, keratinocytes grown 4 days before gallium maltol, Example 4; type: cell-based, human; conditions: for CELL NUMBER, clear squamous / CELL NUMBER, squamous / CELL NUMBER, proliferative: 3 days after 4 days growth; for CELL NUMBER, clear squamous: control 2.0 ± 0.03%; for CELL NUMBER, squamous: control 13.3 ± 2.6%; for CELL NUMBER, proliferative: control 83.6 ± 3.0%
Procedure: as §1, §2, §3, §4, §5
In a subsequent experiment, flasks of keratinocytes were grown in medium 154 for 4 days after seeding, before switching to the high calcium medium without gallium maltol (control) or with gallium maltol at final concentrations of 5×10^-5, 1×10^-5 or 1×10^-6 M. There were 2 or 3 flasks in each group. Culture was continued for another 3 days, when the keratinocytes were harvested and counted as before.

[3] = tested on: Adult human keratinocytes; test: Keratinocyte growth inhibition (crystal violet staining; confirmatory hexosaminidase activity), Example 2; type: cell-based
Text: Adult human keratinocytes from pooled donor skin were obtained from commercial sources (Cascade Biologics, Portland, Oreg., U.S.A.) and placed in 150 cm^2 bottom area culture flasks using culture medium 154 supplemented with HKGS (about 1%). At 80% confluency, cells were harvested with trypsin and cryopreserved until required. At the start of the experiments, the required number of vials of keratinocytes was thawed, and the keratinocytes were placed in culture in 24 well plates at about 2,500 cells/cm^2 using the same culture medium as described above. After 24 hours (to allow attachment), the medium was changed to fresh 154 supplemented with HKGS (about 1%) and gallium maltol. Specifically, the fresh medium was prepared by addition of a sufficient amount of a stock solution to provide for six different compositions having a final gallium concentration of 10^-4 M, 10^-5 M, 10^-6 M, 10^-8 M, 10^-10 M, and 10^-12 M. The stock solution was prepared by adding 22.25 mg of gallium maltol to 50 mL of 154 medium and then passing the solution through a 0.2 μm filter and storing at 4° C. Media were replaced every 2 or 3 days. […]

Keratinocytes [4] = test: Comparison of keratinocyte growth inhibition by gallium maltol, gallium nitrate and maltol, Example 3; type: cell-based, human; conditions: 1×10^-4 M, 9 days, high Ca^+2 medium; FIG. 3
Text: as §1
At the start of the experiments, the required number of vials of keratinocytes was thawed, and the keratinocytes were placed in culture in 24 well plates at about 2,500 cells/cm^2 using the same culture medium as described above. After 24 hours (to allow attachment), the medium was changed to fresh 154 supplemented with HKGS (about 1%) and gallium maltol. Specifically, the fresh medium was prepared by addition of a sufficient amount of a stock solution to provide for six different compositions having a final gallium concentration of 10^-4 M, 10^-5 M, 10^-6 M, 10^-8 M, 10^-10 M, and 10^-12 M. The stock solution was prepared by adding 22.25 mg of gallium maltol to 50 mL of 154 medium and then passing the solution through a 0.2 μm filter and storing at 4° C.
When control cells were about 40% confluent (generally at 4-5 days in culture, all media were removed by aspiration, keratinocyte growth was assayed by crystal violet staining and conversion to cell numbers as described by Wilkinson, et al.^11. Specifically, cell layers rinsed in PBS, which was also aspirated, and 4 drops of crystal violet solution added to each well. The crystal violet solution was prepared by dissolving crystal violet (Fisher Scientific) in PBS:formaldehyde:ethanol (67:3:30%) to give a 0.5 w/v solution. A blank 24-well plate was treated similarly.
Keratinocytes were cultured in 24-well plates for 9 days in the manner described above in Example 2. […]
The cells were then cultured and subsequently evaluated for inhibition of keratinocyte proliferation in the manner described above.

Cc1occc(=O)c1[O-].Cc1occc(=O)c1[O-].Cc1occc(=O)c1[O-].[Ga+3] [gallium maltol, neutral 3:1 gallium complex of maltol]
anti-proliferative effect (Keratinocytes [1]; 1×10^-4 M): so great that the number of cells was too small for accurate counting | number of proliferative, squamous and cornified cells vs control (Keratinocytes [1]; 1×10^-5 M): for all intents and purposes, unchanged compared to control | increase in the number of cornified envelopes vs control (Keratinocytes [1]; 5×10^-5 M): tenfold | decrease in total number of cells (Keratinocytes [1]; 5×10^-5 M, vs control, 50 µM): about 90% | number of squamous cells vs control (Keratinocytes [1]; 5×10^-5 M, FIG. 4): increase in the number of squamous cells | proportion of proliferative cells vs control (Keratinocytes [1]; 5×10^-5 M, FIG. 4): moderate decrease in the proportion of proliferative cells | CELL NUMBER, cornified (Keratinocytes [1]; 10^-5 M, control 0.26 ± 0.01%): 0.39 ± 0.17% | CELL NUMBER, clear squamous (Keratinocytes [1]; 10^-5 M, control 1.8 ± 0.9%): 2.9 ± 0.15% | CELL NUMBER, squamous (Keratinocytes [1]; 10^-5 M, control 12.7 ± 2.7%): 13.5 ± 0.65% | CELL NUMBER, proliferative (Keratinocytes [1]; 10^-5 M, control 85.3 ± 2.7%): 83.6 ± 0.64% | concentration at which inhibition of keratinocyte proliferation is achieved (Keratinocytes [1]): greater than 1×10^-5 M | concentration enhancing cell differentiation of keratinocytes (Keratinocytes [1]): greater than 1×10^-5 M | CELL NUMBER, clear squamous (Keratinocytes [2]; 1×10^-5 M): 3.1 ± 0.06% | CELL NUMBER, squamous (Keratinocytes [2]; 1×10^-5 M): 16.0 ± 3.1% | CELL NUMBER, proliferative (Keratinocytes [2]; 1×10^-5 M): 80.8 ± 2.0% | differences in cell differentiation as determined by the proportion of cells (Keratinocytes [2]; 5×10^-5 M, 1×10^-5 M (1×10^-6 M not counted), 4 days growth, then 3 days exposure): no significant differences were observed in cell differentiation | CELL NUMBER, clear squamous (Keratinocytes [2]; 5×10^-5 M): 3.5 ± 0.06% | CELL NUMBER, squamous (Keratinocytes [2]; 5×10^-5 M): 14.0 ± 1.1% | CELL NUMBER, proliferative (Keratinocytes [2]; 5×10^-5 M): 82.4 ± 0.91% | keratinocyte growth reduced as compared to control ([3]; 10^-4 M, FIG. 1 (crystal violet) and FIG. 2 (hexosaminidase), 100 µM): 60 to 90% | effect on keratinocyte growth at lower concentrations ([3]; concentrations below 10^-4 M, FIG. 2 (hexosaminidase)): may, in fact, slightly promote keratinocyte growth | inhibition of keratinocyte proliferation (Keratinocytes [4]): about 94%

Source: US5747482A, “Methods and compositions to inhibit keratinocyte proliferation” (priority 1996, dated 1998)
